Measurements published in patent publication US7803801B2, “Aminopyridine compounds having Syk inhibitory activity” (Japan Tobacco, Inc., priority 2005, dated 2010).
Where two headings read alike, the source gives them in different places.

Assays:
[1] = tested on: cultured human mast cells; experiment: Degranulation inhibition test using cultured human mast cells (IgE cross-linking, β-Hexosaminidase release); type: cell-based; details: Mast cell, cultured human mast cells, read-out: human degranulation ave. IC50
How it was run: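 Degranulation was triggered by anti-hIgE (10 μg/mL final, 30 min, 37 °C) after a 10-min compound pretreatment (DMSO 0.1%) of cord-blood CD34+-derived mast cells primed 5 days with IL-4 and IgE. β-Hexosaminidase in supernatant was measured with p-nitrophenyl-GlcNAc substrate (A405), expressed against water-lysed total; IC50 (M).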

[2] = molecular target: GST-Syk Full Protein (human) (Homo sapiens, UniProt P43405); experiment: Syk kinase inhibition test (HTRF method); type: biochemical
How it was run: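 HTRF read-out: after EDTA termination and 1 h with XL665-streptavidin and Eu-anti-phosphotyrosine, the 665/620 nm ratio was measured. The reaction ran 30 min at 20–25 °C with final 6.4 nM human GST-Syk, 250 nM biotinylated peptide, 100 μM ATP, pH 7.0 HEPES buffer, 2% DMSO.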

[3] = anti-hIgE stimulation, β-Hexosaminidase index, average
[4] = HTRF, 100 μM ATP, 30 min room temperature, average, read-out: sykHTRF ave IC50
[5] = Tables 1-x, compounds A, read-out: sykHTRF ave IC50
[6] = Tables 2-x, thiophene compounds B
[7] = Tables 2-x, thiophene compounds B, read-out: sykHTRK ave IC50

| Compound | IC50 [1, 3] [nM] | IC50 [2, 4] [nM] | IC50 ([1]; Tables 1-x, compounds A) [nM] | IC50 [2, 5] [nM] | further results |
| --- | --- | --- | --- | --- | --- |
| Cc1ccnc(Nc2cccc(-c3cnc(CCC4CCN(C(=O)CO)CC4)s3)n2)c1 [Compound A-263, 2-hydroxy-1-[4-(2-{5-[6-(4-methylpyridin-2-ylamino)pyridin-2-yl]thiazol-2-yl}ethyl)piperidin-1-yl]ethanone] | 100 to 1000 | < 100 |  |  |  |
| Cc1ccnc(Nc2cccc(-c3cnc(CC(=O)N4CCC(O)CC4)s3)n2)c1 [Compound A-230] | > 1000 | 100 to 1000 |  |  |  |
| Cc1ccnc(Nc2cccc(-c3cnc(N(CC(=O)N(C)C)C[C@H]4CC[C@H](C(=O)O)CC4)s3)n2)c1 [Compound A-601] |  |  | > 1000 | 100 to 1000 |  |
| Cc1ccnc(Nc2cccc(-c3cnc([C@H](C)NC(=O)Cc4ccc(O)cc4)s3)n2)c1 [Compound A-352] | 100 to 1000 | 100 to 1000 |  |  |  |
| O=C(O)[C@H]1CC[C@H](c2ncc(-c3cccc(Nc4cc5ccccc5cn4)n3)s2)CC1 [Compound A-215, trans-4-{5-[6-(isoquinolin-3-ylamino)pyridin-2-yl]thiazol-2-yl}cyclohexanecarboxylic acid] | 100 to 1000 | < 100 |  |  |  |
| CC(=O)c1ccc(-c2cccc(Nc3cc(N(C)C)ncn3)n2)s1 [Compound B-26] |  |  |  |  | IC50 [1, 6]: > 1000 nM; IC50 [2, 7]: 100 to 1000 nM |
| Cc1ccnc(Nc2cccc(-c3cnc(N(C)[C@H]4CC[C@H](C(=O)O)CC4)s3)n2)c1 [Compound A-592, trans-4-(N-methyl-N-{5-[6-(4-methylpyridin-2-ylamino)pyridin-2-yl]thiazol-2-yl}amino)cyclohexanecarboxylic acid] |  |  | 100 to 1000 | < 100 |  |
| CC1(c2ccnc(Nc3cccc(-c4cnc(N5CC[C@@H](O)C5)s4)n3)c2)OCCO1 [Compound A-548, (R)-1-(5-{6-[4-(2-methyl-[1,3]dioxolan-2-yl)pyridin-2-ylamino]pyridin-2-yl}thiazol-2-yl)pyrrolidin-3-ol] |  |  | 100 to 1000 | < 100 |  |
| CC(=O)c1ccnc(Nc2cccc(-c3cnc(N4CCC[C@@H](C(=O)O)C4)s3)n2)c1 [Compound A-560, (R)-1-{5-[6-(4-acetylpyridin-2-ylamino)pyridin-2-yl]thiazol-2-yl}piperidine-3-carboxylic acid] |  |  | 100 to 1000 | < 100 |  |
| CC(=O)NC1CCN(C(=O)[C@H]2CC[C@H](c3ncc(-c4cccc(Nc5cc(C)ccn5)n4)s3)CC2)C1 (stereo partly drawn) [Compound A-284] | 100 to 1000 | 100 to 1000 |  |  |  |
| COC1CCN(c2ncc(-c3cccc(Nc4cc(C)ccn4)n3)s2)CC1 [Compound A-431, N-{6-[2-(4-methoxypiperidin-1-yl)thiazol-5-yl]pyridin-2-yl}-N-(4-methylpyridin-2-yl)amine] |  |  | 100 to 1000 | < 100 |  |
| Cc1ccnc(Nc2cccc(-c3cnc([C@@H]4CNC(=O)O4)s3)n2)c1 [Compound A-409, (S)-5-{5-[6-(4-methylpyridin-2-ylamino)pyridin-2-yl]thiazol-2-yl}oxazolidin-2-one] |  |  | < 100 | < 100 |  |
| Cc1ccnc(Nc2cccc(-c3cnc(Cc4cccs4)s3)n2)c1 [Compound A-232] | > 1000 | 100 to 1000 |  |  |  |
| Cc1ccnc(Nc2cccc(-c3cnc(C4CCNCC4)s3)n2)c1 [Compound A-92, (4-methylpyridin-2-yl)-[6-(2-piperidin-4-ylthiazol-5-yl)pyridin-2-yl]amine] | 100 to 1000 | < 100 |  |  |  |
| Cc1ccnc(Nc2cccc(-c3cnc([C@@H]4CN(C)C(=O)O4)s3)n2)c1 [Compound A-405] |  |  | 100 to 1000 | 100 to 1000 |  |
| CC(=O)c1ccc(-c2ncc(C)c(Nc3cc(C)ccn3)n2)s1 [Compound B-29] |  |  |  |  | IC50 [1, 6]: > 1000 nM; IC50 [2, 7]: 100 to 1000 nM |
| Cc1ccnc(Nc2cccc(-c3cnc([C@@H](O)CCC(=O)O)s3)n2)c1 [Compound A-107] | > 1000 | 100 to 1000 |  |  |  |

| Compound | IC50 [1, 3] [nM] | IC50 [2, 4] [nM] | IC50 ([1]; Tables 1-x, compounds A) [nM] | IC50 [2, 5] [nM] | further results |
| --- | --- | --- | --- | --- | --- |
| C[C@H](O)c1ncc(-c2cccc(Nc3cc(C4(C)OCCO4)ccn3)n2)s1 [Compound A-335, (S)-1-(5-{6-[4-(2-methyl-[1,3]dioxolan-2-yl)pyridin-2-ylamino]pyridin-2-yl}thiazol-2-yl)ethanol] | 100 to 1000 | < 100 |  |  |  |
| Cc1ccnc(Nc2cccc(-c3cnc(COCC(=O)N4CC(=O)NC(=O)C4)s3)n2)c1 [Compound A-393] |  |  | > 1000 | 100 to 1000 |  |
| COc1ccc(CCc2ncc(-c3cccc(Nc4cc(C)ccn4)n3)s2)cc1 [Compound A-137] | > 1000 | 100 to 1000 |  |  |  |
| Cc1ccnc(Nc2cccc(-c3cnc(C(=O)NC(C)(C)CO)s3)n2)c1 [Compound A-34] | > 1000 | 100 to 1000 |  |  |  |
| COc1ccnc(Nc2cccc(-c3cnc(N4CCC(C(N)=O)CC4)s3)n2)c1 [Compound A-517, 1-{5-[6-(4-methoxypyridin-2-ylamino)pyridin-2-yl]thiazol-2-yl}piperidine-4-carboxamide] |  |  | 100 to 1000 | < 100 |  |
| Cc1ccnc(Nc2cccc(-c3cnc(N4CCC(C)(C(=O)NCCO)CC4)s3)n2)c1 [Compound A-503, N-(2-hydroxyethyl)-4-methyl-1-{5-[6-(4-methylpyridin-2-ylamino)pyridin-2-yl]thiazol-2-yl}-piperidine-4-carboxamide] |  |  | 100 to 1000 | < 100 |  |
| Cc1ccnc(Nc2cccc(-c3cnc(CN4CCN(C)CC4)s3)n2)c1 [Compound A-209] | > 1000 | 100 to 1000 |  |  |  |
| Cc1ccnc(Nc2cccc(-c3cnc(N4CCC[C@H]4C(=O)NCC(F)(F)F)s3)n2)c1 [Compound A-530, N-(2,2,2-trifluoroethyl)-(S)-1-{5-[6-(4-methylpyridin-2-ylamino)pyridin-2-yl]thiazol-2-yl}pyrrolidine-2-carboxamide] |  |  | 100 to 1000 | < 100 |  |
| Cc1ccnc(Nc2cccc(-c3ccc(CO)s3)n2)c1 [Compound B-12, {5-[6-(4-methylpyridin-2-ylamino)pyridin-2-yl]thiophen-2-yl}methanol] |  |  |  |  | IC50 [1, 6]: 100 to 1000 nM; IC50 [2, 7]: < 100 nM |
| CC(=O)N1CC[C@@H](N(C)c2ncc(-c3cccc(Nc4cc(C)ccn4)n3)s2)C1 [Compound A-563, 1-[(R)-3-(N-methyl-N-{5-[6-(4-methylpyridin-2-ylamino)pyridin-2-yl]thiazol-2-yl}amino)pyrrolidin-1-yl]ethanone] |  |  | 100 to 1000 | < 100 |  |
| Cc1ccnc(Nc2cccc(-c3cnc(Cc4ccc(CO)cc4)s3)n2)c1 [Compound A-243, (4-{5-[6-(4-methylpyridin-2-ylamino)pyridin-2-yl]thiazol-2-ylmethyl}phenyl)methanol] | 100 to 1000 | < 100 |  |  |  |
| Cc1ccnc(Nc2cccc(-c3cnc([C@H]4CC[C@H](C(=O)N5CC[C@H](O)[C@@H](O)C5)CC4)s3)n2)c1 [Compound A-225] | 100 to 1000 | 100 to 1000 |  |  |  |
| Cc1ccnc(Nc2cccc(-c3cnc(N(C)[C@H]4CC[C@H](O)CC4)s3)n2)c1 [Compound A-480, trans-4-(N-methyl-N-{5-[6-(4-methylpyridin-2-ylamino)pyridin-2-yl]thiazol-2-yl}amino)cyclohexanol] |  |  | 100 to 1000 | < 100 |  |
| Cc1ccnc(Nc2cccc(-c3cc(C)c(C(C)O)s3)n2)c1 (stereo not drawn) [Compound B-70] |  |  |  |  | IC50 [1, 6]: 100 to 1000 nM; IC50 [2, 7]: 100 to 1000 nM |
| Cc1ccnc(Nc2cccc(-c3ccc(C(=O)C(C)C)s3)n2)c1 [Compound B-49] |  |  |  |  | IC50 [1, 6]: > 1000 nM; IC50 [2, 7]: 100 to 1000 nM |
| Cc1ccnc(Nc2cccc(-c3cnc(C)s3)n2)c1 [Compound A-231] | 100 to 1000 | 100 to 1000 |  |  |  |
